The subject of test [1] is POLE. The test can be described thus: nHU-MS peptide bait, prey POLE. To be noted: FigureS2 Volcano.
Test [2] concerns the target T1, PPP2R2A (Homo sapiens, UniProt P63151).
T1 sequence (P63151 1-447): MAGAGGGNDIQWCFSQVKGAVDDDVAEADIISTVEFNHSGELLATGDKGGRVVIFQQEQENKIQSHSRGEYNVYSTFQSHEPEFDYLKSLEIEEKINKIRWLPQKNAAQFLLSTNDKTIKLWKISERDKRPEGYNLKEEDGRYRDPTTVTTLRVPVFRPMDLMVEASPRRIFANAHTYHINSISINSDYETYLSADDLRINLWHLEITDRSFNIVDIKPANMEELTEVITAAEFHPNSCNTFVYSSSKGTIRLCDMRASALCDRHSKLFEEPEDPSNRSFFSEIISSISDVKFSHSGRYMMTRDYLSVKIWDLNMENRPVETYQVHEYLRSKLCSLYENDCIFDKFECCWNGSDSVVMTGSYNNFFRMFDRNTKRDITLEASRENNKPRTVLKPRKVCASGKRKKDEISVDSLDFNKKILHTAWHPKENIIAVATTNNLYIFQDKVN
The test can be described thus: nHU-MS peptide bait, prey PPP2R2A. As to conditions: FigureS2 Volcano.

Test [3] deals with His6-avi-MBP-tagged POLE2. The test can be described thus: Single-point nHU-MS with recombinant His6-avi-MBP-POLE2 bait, Jurkat extract. In kind it is binding, human. As to conditions: significant apparent affinity of endogenous prey protein for POLE2 bait; single-point nHU-MS; Figure S11. The text has this: So far, our study only focused on a few hand-picked NPF motifs and studied them as short synthetic peptides. However, many other proteins may be present in the proteome that could bind to POLE2 and their putative NPF motifs are embedded in their natural structures that can greatly affect their binding properties. To investigate interactions between POLE2 and intact, full length proteins proteome-wide, we used nHU-MS experiments with recombinant His6-avi-MBP-tagged POLE2 as bait and purified His6-avi-MBP as a control. Even though we are aware that this recombinant POLE2 may bind to NPF motifs with a somewhat altered affinity, we assumed that this would affect all NPF motif-mediated interactions equally, allowing an unbiased affinity ranking of all identified partners. Single point nHU measurements were performed at 26 μM POLE2 concentration and the recovered supernatant was measured by label free proteomic MS measurements (Fig. 3A, Supplementary Figs. 8A, 9, Supplementary Data 1).
Single-point nHU experiments with protein baits were carried out nearly identically with two key modifications. First, the resin saturation step was carried out by mixing 50 μl streptavidin resin with 0.5−1 ml 50 μM biotinylated protein solution and the mixture was incubated for 1.5 h at 4 °C with constant agitation. Second, instead of using estimated bait concentrations, we measured it experimentally. An extra aliquot of resin stock was prepared alongside the nHU samples that were identically processed that were used to eluate the immobilized proteins under harsh conditions, in order to experimentally quantify the Cbait by using densitometry of Coomassie stained SDS-PAGE that included a protein calibration series. For this, 50 μl bait-saturated resin aliquots were mixed with 200 μl 4x Laemmli Sample Buffer (120 mM Tris-HCl pH 7, 8% SDS, 100 mM DTT, 32% glycerol, 0.004% bromphenol blue, 1% β-mercaptoethanol), instead of cell extract. After 15 min incubation at 95 °C, these samples were analyzed by SDS-PAGE using protein calibration standard, made from recombinant MBP. Densitometry was carried out after Coomassie staining on raw Tif images by using Fiji ImageJ 1.53c and experimental bait concentration were determined by adjusting for molecular weight differences between MBP and MBP-POLE2 constructs.
Samples were digested overnight at 37 °C.

For the substance TSETSK [SYNJ1], the log2FC in test [1] was -0.4452. Also, in test [2], the “-log10P” value is reported as 6.763 and the log2FC is -0.4164. The pKapp_sign in test [3] was 4.4418.

The values above are taken from article PMC12808100, “The non-catalytic DNA polymerase ε subunit is an NPF motif recognition protein” (Nature Communications, 2025).
